Read-outs that look alike come from different tables or passages of the source.
Assay: Solubility of compound 1 in the solvent under evaluation at 22° C. and 65° C. (crystallization study)
Format: physicochemical
Method: Crystalline compound 1 was evaluated. Crystallization study procedures were done based on the solubility of compound 1 in the solvent under evaluation as follows.
The results are presented below in Table 10 where: * refers to compound 1 prepared as described above; and ** refers to compound 1 prepared as described above and further incubated at 100% relative humidity at 22° C. for 17 days.

Measured: solubility

Nc1ncc(-c2cc(N3C[C@@H]4C[C@H]3CO4)nc(N3CCC(F)(F)C3)n2)cc1OC(F)F [Compound 1, 5-(6-((1S,4S)-2-oxa-5-azabicyclo[2.2.1]heptan-5-yl)-2-(3,3-difluoropyrrolidin-1-yl)pyrimidin-4-yl)-3-(difluoromethoxy)pyridin-2-amine]
> 50 mg/mL: 2-methyl THF, 65 °C, organic solvent or mixture, solvent: 2-methyl THF, read-out: Solubility at 65° C. | 15% water in THF, 22 °C, organic solvent or mixture, thermodynamic from solid, solvent: 15% water in THF, read-out: Solubility at 22° C. | 15% water in acetone, 65 °C, organic solvent or mixture, thermodynamic from solid, solvent: 15% water in acetone, read-out: Solubility at 65° C. | 20% water in acetonitrile, 65 °C, organic solvent or mixture, solvent: 20% water in acetonitrile, read-out: Solubility at 65° C. | Acetonitrile, 65 °C, organic solvent or mixture, solvent: Acetonitrile, read-out: Solubility at 65° C. | Chloroform, 65 °C, organic solvent or mixture, solvent: Chloroform, read-out: Solubility at 65° C. | Dichloromethane, 65 °C, organic solvent or mixture, solvent: Dichloromethane, read-out: Solubility at 65° C. | Dimethyl carbonate, 65 °C, organic solvent or mixture, solvent: Dimethyl carbonate, read-out: Solubility at 65° C. | Dioxane, 22 °C, organic solvent or mixture, thermodynamic from solid, solvent: Dioxane, read-out: Solubility at 22° C. | Ethyl acetate, 65 °C, organic solvent or mixture, solvent: Ethyl acetate, read-out: Solubility at 65° C. | THF, 22 °C, organic solvent or mixture, thermodynamic from solid, solvent: THF, read-out: Solubility at 22° C. | acetone, 65 °C, organic solvent or mixture, solvent: Acetone, read-out: Solubility at 65° C. | nitromethane, 65 °C, organic solvent or mixture, thermodynamic from solid, solvent: Nitromethane, read-out: Solubility at 65° C.
> 100 mg/mL: Acetic acid, 22 °C, organic solvent or mixture, thermodynamic from solid, solvent: Acetic acid, read-out: Solubility at 22° C. | DMF, 22 °C, organic solvent or mixture, thermodynamic from solid, solvent: DMF, read-out: Solubility at 22° C. | DMSO, 22 °C, organic solvent or mixture, thermodynamic from solid, solvent: DMSO, read-out: Solubility at 22° C.
> 200 mg/mL: DMA, 22 °C, organic solvent or mixture, thermodynamic from solid, solvent: DMA, read-out: Solubility at 22° C. | NMP, 22 °C, organic solvent or mixture, thermodynamic from solid, solvent: NMP, read-out: Solubility at 22° C.
< 50 mg/mL: 2-methyl THF, 22 °C, organic solvent or mixture, thermodynamic from solid, solvent: 2-methyl THF, read-out: Solubility at 22° C. | 5% water in ethanol, 22 °C, organic solvent or mixture, thermodynamic from solid, solvent: 5% water in ethanol, read-out: Solubility at 22° C. | 5% water in ethanol, 65 °C, organic solvent or mixture, solvent: 5% water in ethanol, read-out: Solubility at 65° C. | 5% water in isopropanol, 22 °C, organic solvent or mixture, thermodynamic from solid, solvent: 5% water in isopropanol, read-out: Solubility at 22° C. | 5% water in isopropanol, 65 °C, organic solvent or mixture, solvent: 5% water in isopropanol, read-out: Solubility at 65° C. | 5% water in methanol, 22 °C, organic solvent or mixture, thermodynamic from solid, solvent: 5% water in methanol, read-out: Solubility at 22° C. | 5% water in methanol, 65 °C, organic solvent or mixture, solvent: 5% water in methanol, read-out: Solubility at 65° C. | 5% water in propanol, 22 °C, organic solvent or mixture, thermodynamic from solid, solvent: 5% water in propanol, read-out: Solubility at 22° C. | 5% water in propanol, 65 °C, organic solvent or mixture, solvent: 5% water in propanol, read-out: Solubility at 65° C. | 15% water in acetone, 22 °C, organic solvent or mixture, thermodynamic from solid, solvent: 15% water in acetone, read-out: Solubility at 22° C. | 15% water in ethanol, 22 °C, organic solvent or mixture, thermodynamic from solid, solvent: 15% water in ethanol, read-out: Solubility at 22° C. | 15% water in ethanol, 65 °C, organic solvent or mixture, thermodynamic from solid, solvent: 15% water in ethanol, read-out: Solubility at 65° C. | 15% water in isopropanol, 22 °C, organic solvent or mixture, thermodynamic from solid, solvent: 15% water in isopropanol, read-out: Solubility at 22° C. | 15% water in isopropanol, 65 °C, organic solvent or mixture, thermodynamic from solid, solvent: 15% water in isopropanol, read-out: Solubility at 65° C. | 15% water in methanol, 22 °C, organic solvent or mixture, thermodynamic from solid, solvent: 15% water in methanol, read-out: Solubility at 22° C. | 15% water in methanol, 65 °C, organic solvent or mixture, solvent: 15% water in methanol, read-out: Solubility at 65° C. | 15% water in propanol, 22 °C, organic solvent or mixture, thermodynamic from solid, solvent: 15% water in propanol, read-out: Solubility at 22° C. | 15% water in propanol, 65 °C, organic solvent or mixture, solvent: 15% water in propanol, read-out: Solubility at 65° C. | 20% water in acetonitrile, 22 °C, organic solvent or mixture, thermodynamic from solid, solvent: 20% water in acetonitrile, read-out: Solubility at 22° C. | 50% water in acetonitrile, 22 °C, aqueous with cosolvent or surfactant or cyclodextrin, thermodynamic from solid, solvent: 50% water in acetonitrile, read-out: Solubility at 22° C. | 50% water in acetonitrile, 65 °C, aqueous with cosolvent or surfactant or cyclodextrin, solvent: 50% water in acetonitrile, read-out: Solubility at 65° C. | 50% water in ethanol, 22 °C, aqueous with cosolvent or surfactant or cyclodextrin, thermodynamic from solid, solvent: 50% water in ethanol, read-out: Solubility at 22° C. | 50% water in ethanol, 65 °C, aqueous with cosolvent or surfactant or cyclodextrin, solvent: 50% water in ethanol, read-out: Solubility at 65° C. | 50% water in isopropanol, 22 °C, aqueous with cosolvent or surfactant or cyclodextrin, thermodynamic from solid, solvent: 50% water in isopropanol, read-out: Solubility at 22° C. | 50% water in isopropanol, 65 °C, aqueous with cosolvent or surfactant or cyclodextrin, solvent: 50% water in isopropanol, read-out: Solubility at 65° C. | 50% water in methanol, 22 °C, aqueous with cosolvent or surfactant or cyclodextrin, thermodynamic from solid, solvent: 50% water in methanol, read-out: Solubility at 22° C. | 50% water in methanol, 65 °C, aqueous with cosolvent or surfactant or cyclodextrin, solvent: 50% water in methanol, read-out: Solubility at 65° C. | 50% water in propanol, 22 °C, aqueous with cosolvent or surfactant or cyclodextrin, thermodynamic from solid, solvent: 50% water in propanol, read-out: Solubility at 22° C. | 50% water in propanol, 65 °C, aqueous with cosolvent or surfactant or cyclodextrin, solvent: 50% water in propanol, read-out: Solubility at 65° C. | 80% water in acetonitrile, 22 °C, aqueous with cosolvent or surfactant or cyclodextrin, thermodynamic from solid, solvent: 80% water in acetonitrile, read-out: Solubility at 22° C. | 80% water in acetonitrile, 65 °C, aqueous with cosolvent or surfactant or cyclodextrin, solvent: 80% water in acetonitrile, read-out: Solubility at 65° C. | Acetonitrile, 22 °C, organic solvent or mixture, thermodynamic from solid, solvent: Acetonitrile, read-out: Solubility at 22° C. | Chloroform, 22 °C, organic solvent or mixture, thermodynamic from solid, solvent: Chloroform, read-out: Solubility at 22° C. | Dichloromethane, 22 °C, organic solvent or mixture, thermodynamic from solid, solvent: Dichloromethane, read-out: Solubility at 22° C. | Diisopropylamine, 22 °C, organic solvent or mixture, thermodynamic from solid, solvent: Diisopropylamine, read-out: Solubility at 22° C. | Diisopropylamine, 65 °C, organic solvent or mixture, solvent: Diisopropylamine, read-out: Solubility at 65° C. | Dimethyl carbonate, 22 °C, organic solvent or mixture, thermodynamic from solid, solvent: Dimethyl carbonate, read-out: Solubility at 22° C. | Ethyl acetate, 22 °C, organic solvent or mixture, thermodynamic from solid, solvent: Ethyl acetate, read-out: Solubility at 22° C. | Isopropyl acetate, 22 °C, organic solvent or mixture, thermodynamic from solid, solvent: Isopropyl acetate, read-out: Solubility at 22° C. | Isopropyl acetate, 65 °C, organic solvent or mixture, solvent: Isopropyl acetate, read-out: Solubility at 65° C. | MEK, 22 °C, organic solvent or mixture, thermodynamic from solid, solvent: MEK, read-out: Solubility at 22° C. | MEK, 65 °C, organic solvent or mixture, thermodynamic from solid, solvent: MEK, read-out: Solubility at 65° C. | MIBK, 22 °C, organic solvent or mixture, thermodynamic from solid, solvent: MIBK, read-out: Solubility at 22° C. | MIBK, 65 °C, organic solvent or mixture, thermodynamic from solid, solvent: MIBK, read-out: Solubility at 65° C. | MTBE, 22 °C, organic solvent or mixture, thermodynamic from solid, solvent: MTBE, read-out: Solubility at 22° C. | MTBE, 65 °C, organic solvent or mixture, thermodynamic from solid, solvent: MTBE, read-out: Solubility at 65° C. | Methanol, 22 °C, organic solvent or mixture, thermodynamic from solid, solvent: Methanol, read-out: Solubility at 22° C. | Methanol, 65 °C, organic solvent or mixture, thermodynamic from solid, solvent: Methanol, read-out: Solubility at 65° C. | Toluene, 22 °C, organic solvent or mixture, thermodynamic from solid, solvent: Toluene, read-out: Solubility at 22° C. | Toluene, 65 °C, organic solvent or mixture, thermodynamic from solid, solvent: Toluene, read-out: Solubility at 65° C. | acetone, 22 °C, organic solvent or mixture, thermodynamic from solid, solvent: Acetone, read-out: Solubility at 22° C. | butanol, 22 °C, organic solvent or mixture, thermodynamic from solid, solvent: Butanol, read-out: Solubility at 22° C. | butanol, 65 °C, organic solvent or mixture, solvent: Butanol, read-out: Solubility at 65° C. | ethanol, 22 °C, organic solvent or mixture, thermodynamic from solid, solvent: Ethanol, read-out: Solubility at 22° C. | ethanol, 65 °C, organic solvent or mixture, solvent: Ethanol, read-out: Solubility at 65° C. | i-butanol, 22 °C, organic solvent or mixture, thermodynamic from solid, solvent: i-Butanol, read-out: Solubility at 22° C. | i-butanol, 65 °C, organic solvent or mixture, thermodynamic from solid, solvent: i-Butanol, read-out: Solubility at 65° C. | isopropanol, 22 °C, organic solvent or mixture, thermodynamic from solid, solvent: Isopropanol, read-out: Solubility at 22° C. | isopropanol, 65 °C, organic solvent or mixture, solvent: Isopropanol, read-out: Solubility at 65° C. | n-Heptane, 22 °C, organic solvent or mixture, thermodynamic from solid, solvent: n-Heptane, read-out: Solubility at 22° C. | n-Heptane, 65 °C, organic solvent or mixture, thermodynamic from solid, solvent: n-Heptane, read-out: Solubility at 65° C. | nitromethane, 22 °C, organic solvent or mixture, thermodynamic from solid, solvent: Nitromethane, read-out: Solubility at 22° C. | propanol, 22 °C, organic solvent or mixture, thermodynamic from solid, solvent: Propanol, read-out: Solubility at 22° C. | propanol, 65 °C, organic solvent or mixture, thermodynamic from solid, solvent: Propanol, read-out: Solubility at 65° C. | s-butanol, 22 °C, organic solvent or mixture, thermodynamic from solid, solvent: s-butanol, read-out: Solubility at 22° C. | s-butanol, 65 °C, organic solvent or mixture, thermodynamic from solid, solvent: s-butanol, read-out: Solubility at 65° C. | water, 22 °C, water, thermodynamic from solid, solvent: Water, read-out: Solubility at 22° C. | water, 65 °C, water, thermodynamic from solid, solvent: Water, read-out: Solubility at 65° C.

— patent US20230312473A1, “PROCESS FOR THE PREPARATION OF BIHETEROARYL COMPOUNDS AND CRYSTAL FORMS THEREOF” (Genentech, Inc., priority 2020, published 2023)
